Data reported in ChEMBL document CHEMBL1135028, “Enantio-dependent binding and transactivation of optically active phenylpropanoic acid derivatives at human peroxisome proliferator-activated receptor alpha” (Bioorg Med Chem Lett, 2002).

What was measured:
[1] = biological target: T1, Peroxisome proliferator-activated receptor alpha (Homo sapiens, UniProt Q07869); assay: Binding affinity of compound to human peroxisome proliferator-activated receptor alpha was determined by competitive binding assay
T1 sequence (Q07869 whole entry): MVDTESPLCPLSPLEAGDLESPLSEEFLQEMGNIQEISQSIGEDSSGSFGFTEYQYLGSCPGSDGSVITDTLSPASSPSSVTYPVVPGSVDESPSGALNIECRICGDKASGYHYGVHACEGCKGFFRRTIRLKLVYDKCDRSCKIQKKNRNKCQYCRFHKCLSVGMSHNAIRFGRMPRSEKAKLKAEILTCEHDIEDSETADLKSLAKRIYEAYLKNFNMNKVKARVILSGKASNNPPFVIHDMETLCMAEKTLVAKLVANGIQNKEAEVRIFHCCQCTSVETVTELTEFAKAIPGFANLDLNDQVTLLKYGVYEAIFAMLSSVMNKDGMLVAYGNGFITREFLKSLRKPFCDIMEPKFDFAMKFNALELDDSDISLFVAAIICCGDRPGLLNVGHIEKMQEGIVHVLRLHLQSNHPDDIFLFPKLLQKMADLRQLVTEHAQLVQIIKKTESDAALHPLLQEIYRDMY

[2] = biological target: T1, Peroxisome proliferator-activated receptor alpha; assay: Compound was tested for half maximum transactivation activity of human peroxisome proliferator-activated receptor alpha; assay type: functional

Row | SMILES | EC50 [1] [nM] | EC50 [2] [nM]
1 | CC[C@@H](Cc1ccc(OC)c(C(=O)NCc2ccc(C(F)(F)F)cc2)c1)C(=O)O | 740 | 
2 | CC[C@H](Cc1ccc(OC)c(C(=O)NCc2ccc(C(F)(F)F)cc2)c1)C(=O)O | 24000 | 1500
